Assays:
ecNadD = ecNadD (Escherichia coli (strain K12), UniProt P0A752); test: biochemical; assay type: biochemical; conditions: for inhibition at 100 µM: read-out: INHIBITION (%) E. coli; for IC50: IC50 ecNadD
baNadD = baNadD (Bacillus anthracis, UniProt C3L5T6); test: biochemical; assay type: biochemical; conditions: for inhibition at 50 µM: read-out: INHIBITION (%) B. anthracis; for IC50: IC50 baNadD
Chain of baNadD (C3L5T6 whole entry, looked up): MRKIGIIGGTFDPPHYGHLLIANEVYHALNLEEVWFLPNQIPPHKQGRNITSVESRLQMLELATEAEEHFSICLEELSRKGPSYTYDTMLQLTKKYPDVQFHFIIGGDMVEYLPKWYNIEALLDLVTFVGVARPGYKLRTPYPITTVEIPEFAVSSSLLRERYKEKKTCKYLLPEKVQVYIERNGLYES

Structure (SMILES) | […]. coli (ecNadD) | […]. anthracis (baNadD) | other results
CC(=O)Nc1ccc(S(=O)(=O)Nc2ccc(Cl)cc2Cl)cc1 [compound 008] | 47% | 0% | –
CC(Sc1ccccc1)C(=O)Nc1ccccc1C(=O)O (stereo not drawn) [compound 055] | 15% | 15% | –
O=C(Cn1cnc2ccccc2c1=O)Nc1nccs1 [compound 145] | 6% | 0% | –
O=C(O)CNC(=S)N(Cc1ccccc1)Cc1cccs1 [compound 154] | 5% | 0% | –
CC(=O)c1cccc(NS(=O)(=O)c2cccc(C(=O)O)c2)c1 [compound 240] | 0% | 0% | –
O=C(O)c1ccc2nc(-c3ccc(O)cc3)sc2c1 [compound 277] | 0% | 0% | –
O=C(Nc1ccc(O)cc1)c1ccc(Cl)c(Cl)c1 [compound 086] | 11% | 0% | –
Nc1ccc(NC(=O)c2cc(Cl)ccc2O)c(Cl)c1 [compound 043] | 18% | 2% | –
O=C1Nc2ccccc2/C1=C/NCCc1ccccc1 [15_32] | – | – | inhibition at 100 µM (ecNadD): 7%; inhibition at 50 µM (baNadD): 4%
Nc1c(C(=O)Nc2cccc(Cl)c2Cl)sc2nc(-c3cccs3)ccc12 [compound 003] | – | – | inhibition at 100 µM (ecNadD): 73%; inhibition at 50 µM (baNadD): 40%
COc1ccc(N(CC(=O)O)S(=O)(=O)c2ccc(C)cc2)cc1Cl [compound 192] | 1% | 0% | –
COC(=O)c1ccccc1N/C=C1\C(=O)Nc2ccccc21 [15_08] | – | – | inhibition at 100 µM (ecNadD): 14%; inhibition at 50 µM (baNadD): 0%
Cc1ccc(SCc2cc(=O)n3ncnc3[nH]2)cc1 [compound 231] | 0% | 0% | –
CCS(=O)(=O)CCSc1nc2ccccc2o1 [compound 094] | 10% | 0% | –
CCc1cccc(C)c1N/C=C1\C(=O)Nc2ccccc21 [15_41] | – | – | inhibition at 100 µM (ecNadD): 0%; inhibition at 50 µM (baNadD): 13%
O=[N+]([O-])c1ccc(/C=N\NS(=O)(=O)c2ccc(Cl)cc2)o1 [compound 057] | 15% | 28% | –
Nc1cc(=O)[nH]c(SCC(=O)Nc2ccc(S(N)(=O)=O)cc2)n1 [compound 164] | 4% | 32% | –
O=C(O)CCSCCc1ccncc1 [compound 193] | 1% | 18% | –
O=C(O)CC(NC(=O)OCc1ccccc1)c1ccccc1 (stereo not drawn) [compound 261] | 0% | 24% | –
COc1ccccc1OCc1nc(-c2ccc(Cl)cc2Cl)no1 [compound 299] | 0% | 1% | –
CSc1ccc(/C=N/c2ccc(S(N)(=O)=O)cc2)cc1 [compound 076] | 12% | 0% | –

Structure (SMILES) | […]. coli (ecNadD) | […]. anthracis (baNadD) | other results
O=C(NCc1ccc(C(=O)O)cc1)Nc1ccc(Br)cc1Cl [compound 245] | 0% | 0% | –
C/C(=N/NC(=O)CCC(=O)Nc1ccc(Br)cc1)c1ccc(Br)cc1 [01_18] | – | – | inhibition at 100 µM (ecNadD): 38%; inhibition at 50 µM (baNadD): 49%
Oc1c(Cl)cc(Cl)cc1/C=N/c1nc[nH]n1 [compound 038] | 20% | 0% | –
O=S(=O)(Nc1ccc(Br)c(Cl)c1)c1cccs1 [compound 203] | 0% | 0% | –
O=C(NNC(=O)c1ccccc1C(=O)O)c1ccc(Cl)cc1 [compound 195] | 1% | 0% | –
Nc1cc(NCCCCCC(=O)O)ccc1[N+](=O)[O-] [compound 034] | 21% | 1% | –
O=C(O)CN1C(=O)CC(Cc2ccc(Cl)cc2)C1=O (stereo not drawn) [compound 168] | 3% | 0% | –
CC(c1ccccc1)c1nnc(N)s1 (stereo not drawn) [compound 242] | 0% | 18% | –
Cn1c(SCC(N)=O)nnc1-c1ccc(Br)cc1 [compound 286] | 0% | 0% | –
COCCNS(=O)(=O)c1ccc2c(c1)CCN2C(=O)CCC(=O)O [compound 196] | 1% | 52% | –
O=C(O)c1cccc(COc2ccc(CO)cc2Cl)c1 [compound 175] | 3% | 0% | –
O=C(Nc1ncnc2[nH]cnc12)c1ccccc1 [compound 112] | 8% | 0% | –
Cc1ccc(S(=O)(=O)/N=C/c2cccnc2)cc1 [compound 092] | 10% | 0% | –
O=C(CSc1nc2ccccc2c(=O)[nH]1)NCc1ccco1 [compound 167] | 4% | 0% | –
O=c1/c(=C/c2ccc(O)cc2)sc2nc3cc(Br)cnc3n12 [compound 111] | 9% | 6% | –
Cc1nnc(N/N=C/c2ccccc2C(=O)O)nc1O [compound 267] | 0% | 4% | –
Cc1ccc(-c2nnc(SCC(=O)O)o2)cc1 [compound 201] | 0% | 25% | –
O=[N+]([O-])/C=C/Nc1cccc([N+](=O)[O-])c1 [compound 061] | 14% | 0% | –
COC(=O)c1cc(O)c(C(=O)Nc2ccc(Cl)c(Cl)c2)s1 [compound 052] | 16% | 24% | –
Cc1ccc(OCC(=O)Nc2nnc[nH]2)c(Br)c1 [compound 046] | 17% | 71% | –
Nc1c(C(=O)Nc2ccc(Cl)cc2)sc2nc(-c3ccc(F)cc3)ccc12 [03_08] | – | – | IC50 (ecNadD): > 200 µM; inhibition at 100 µM (ecNadD): 68%; IC50 (baNadD): > 200 µM; inhibition at 50 µM (baNadD): 28%

Structure (SMILES) | […]. coli (ecNadD) | […]. anthracis (baNadD) | other results
O=C(Nc1ccc(NC(=O)c2cccs2)cc1)c1ccccc1 [compound 020] | 26% | 0% | –
Cc1ccc2nc(NC(=S)NC(=O)c3cccs3)sc2c1 [compound 155] | 5% | 26% | –
O=C(O)c1ccc([N+](=O)[O-])cc1C(=O)Nc1ccc(Cl)cc1 [compound 016] | 29% | 75% | –
O=C1Nc2ccccc2/C1=C/Nc1cccc(Cl)c1 [15_07] | – | – | inhibition at 100 µM (ecNadD): 15%; inhibition at 50 µM (baNadD): 45%
O=C(CSc1nnc(-c2ccncc2)[nH]1)Nc1ccccc1Cl [compound 100] | 9% | 0% | –
N=C1NC(=O)C(Cc2ccccc2Cl)S1 (stereo not drawn) [compound 198] | 0% | 7% | –
CC(C)COC1CS(=O)(=O)CC1OCC(C)C (stereo not drawn) [compound 223] | 0% | 20% | –
CC(=NNC(=O)CCC(=O)Nc1ccc(Br)cc1)c1ccc2ccccc2c1 [compound 200] | 0% | 76% | –
Cc1cccc(N/C=C2\C(=O)Nc3ccccc32)n1 [15_20] | – | – | inhibition at 100 µM (ecNadD): 11%; inhibition at 50 µM (baNadD): 8%
O=C(NCc1ccccc1)Nc1ccc2nsnc2c1 [compound 124] | 7% | 0% | –
O=C(CCC(=O)Nc1ccc(F)cc1)N/N=C/c1ccc(O)cc1 [01_16] | – | – | inhibition at 100 µM (ecNadD): 42%; inhibition at 50 µM (baNadD): 29%
O=C1Nc2ccccc2/C1=C/Nc1ccccc1Br [15_26] | – | – | inhibition at 100 µM (ecNadD): 8%; inhibition at 50 µM (baNadD): 8%
Clc1ccc(CNc2nc[nH]n2)cc1 [compound 305] | 0% | 0% | –
Cc1nnc(SCC(=O)Nc2ccc(Cl)cn2)[nH]c1=O [compound 146] | 5% | 11% | –
Nc1c(C(=O)Nc2ccc(Cl)cc2F)sc2nc(-c3ccc(F)cc3)ccc12 [03_19] | – | – | inhibition at 100 µM (ecNadD): 32%; inhibition at 50 µM (baNadD): 61%
NS(=O)(=O)c1ccc(CCNC(=O)c2cccc(Cl)c2)cc1 [compound 048] | 16% | 14% | –
Nc1c(C(=O)Nc2ccc(F)c(Cl)c2)sc2nc(-c3ccncc3)ccc12 [03_22] | – | – | IC50 (ecNadD): 100 µM; inhibition at 100 µM (ecNadD): 21%; IC50 (baNadD): 39 µM; inhibition at 50 µM (baNadD): 83%
O=C(/C=C/c1ccc2c(c1)OCO2)Nc1ncc([N+](=O)[O-])s1 [compound 049] | 16% | 10% | –
CC(=O)Nc1ccc(NS(=O)(=O)c2ccc(O)c(C(=O)O)c2)cc1 [compound 035] | 20% | 0% | –

From patent publication US8785499B2 (priority 2009, dated 2014)
